Assay results from patent publication US9890152B2 (Genentech, Inc., priority 2012, dated 2018).

Experiments:
EGFR del746-750 T790M = target: T1, EGFR del746-750 T790M (Homo sapiens, UniProt P00533, DEL746-750/T790M); assay: EGFR del746-750 T790M biochemical assay (Caliper mobility shift); settings: 5 μM ATP, 30 min, room temperature; apparent Ki (Morrison) converted by Cheng-Prusoff, Km of ATP 2.1 μM; read-out: EGFR(T790M/d746-750) Ki
T1 construct: purchased Carna Biosciences 08-528

[1] = target: T2, phosphor-EGFR in H1975(L585R/T790M) mutant EGFR expressing cells (Homo sapiens, UniProt P00533, L858R/T790M); assay: H1975 pEGFR MSD cellular assay; format: cell-based; settings: NCI-H1975 cells, serum starved, 1 hour compound incubation, pEGFR Tyr1068 MSD
T2 construct: host or cells: NCI-H1975
T2 sequence (P00533 25-1210 T790M/L858R): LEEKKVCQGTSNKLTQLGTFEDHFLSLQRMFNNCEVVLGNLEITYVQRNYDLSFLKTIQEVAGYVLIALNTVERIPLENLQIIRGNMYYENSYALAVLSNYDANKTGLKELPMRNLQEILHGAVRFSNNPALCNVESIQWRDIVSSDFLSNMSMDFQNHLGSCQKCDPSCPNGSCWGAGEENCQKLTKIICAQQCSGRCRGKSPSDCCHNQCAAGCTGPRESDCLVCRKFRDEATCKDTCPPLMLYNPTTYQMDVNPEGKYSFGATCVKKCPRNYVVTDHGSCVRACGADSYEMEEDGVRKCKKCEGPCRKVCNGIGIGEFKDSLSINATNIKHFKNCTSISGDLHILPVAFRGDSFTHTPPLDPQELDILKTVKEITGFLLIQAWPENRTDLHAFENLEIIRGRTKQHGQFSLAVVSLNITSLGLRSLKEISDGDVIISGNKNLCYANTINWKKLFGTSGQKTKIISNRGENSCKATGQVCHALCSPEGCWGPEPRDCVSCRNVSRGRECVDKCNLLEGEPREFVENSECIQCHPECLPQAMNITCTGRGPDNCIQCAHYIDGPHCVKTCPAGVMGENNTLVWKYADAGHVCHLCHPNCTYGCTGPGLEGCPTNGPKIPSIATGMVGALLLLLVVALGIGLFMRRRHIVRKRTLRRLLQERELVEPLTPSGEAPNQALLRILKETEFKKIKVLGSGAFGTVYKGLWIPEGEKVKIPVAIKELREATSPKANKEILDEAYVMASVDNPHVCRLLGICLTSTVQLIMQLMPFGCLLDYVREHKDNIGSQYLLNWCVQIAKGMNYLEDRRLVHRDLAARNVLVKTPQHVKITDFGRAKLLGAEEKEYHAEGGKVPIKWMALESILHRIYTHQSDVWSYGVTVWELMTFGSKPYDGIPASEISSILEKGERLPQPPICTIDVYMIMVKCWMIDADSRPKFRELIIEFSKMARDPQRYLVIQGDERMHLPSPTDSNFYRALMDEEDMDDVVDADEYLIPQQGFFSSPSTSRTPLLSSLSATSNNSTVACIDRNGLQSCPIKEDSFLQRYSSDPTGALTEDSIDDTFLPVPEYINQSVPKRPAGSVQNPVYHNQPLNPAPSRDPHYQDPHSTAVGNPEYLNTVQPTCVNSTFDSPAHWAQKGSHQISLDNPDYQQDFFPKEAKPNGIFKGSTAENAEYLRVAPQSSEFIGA
Method: H1975 pEGFR MSD Cellular Assays Background:
These assays are intended for determining cellular. […] (Meso Scale Discovery Catalog# N31CB-1).
All cell culture reagents were purchased from Invitrogen/Gibco. Cells are cultured at 37° C. at 5% CO2 and split as recommended by ATCC.
Cell Plating and Serum Starvation:
After six hours, culture medium is aspirated and replaced with serum-free culture medium. Cells are then incubated with the serum-free medium overnight at 37° C. and 5% CO2.
The following day, test compounds are serially diluted in dimethyl sulfoxide (DMSO) and added to cells in serum free medium (final DMSO concentration 0.5%). Assay plates are then incubated for 1 hour at 37° C. and 5% CO2. Following 1 hour of compound incubation cells are then lysed and processed as per the MSD pEGFR assay kit protocol. Cell lysates are added to assay plates pre-coated with antibodies against phosphorylated EGFR. Phosphorylated EGFR in samples are allowed to bind to the capture antibodies overnight at 4° C. The detection antibody (anti-total EGFR, labeled with an electrochemiluminescent SULFO-TAG) is added to the bound lysate and incubated for 1 hour at room temperature. The MSD Read Buffer is added such that when a voltage is applied to the plate electrodes, the labels bound to the electrode surface emit light. The MSD Sector Instrument measures the intensity of the light, and quantitatively measures the amount of phosphorylated-EGFR in the sample. Percent inhibition of EGFR phosphorylation by varying concentrations of test compounds is calculated relative to untreated controls. EC50 values are calculated using the 4 parameter logistic nonlinear regression dose-response model.

T1 sequence (P00533 with tags, fused parts or gaps DEL746-750/T790M limits assumed): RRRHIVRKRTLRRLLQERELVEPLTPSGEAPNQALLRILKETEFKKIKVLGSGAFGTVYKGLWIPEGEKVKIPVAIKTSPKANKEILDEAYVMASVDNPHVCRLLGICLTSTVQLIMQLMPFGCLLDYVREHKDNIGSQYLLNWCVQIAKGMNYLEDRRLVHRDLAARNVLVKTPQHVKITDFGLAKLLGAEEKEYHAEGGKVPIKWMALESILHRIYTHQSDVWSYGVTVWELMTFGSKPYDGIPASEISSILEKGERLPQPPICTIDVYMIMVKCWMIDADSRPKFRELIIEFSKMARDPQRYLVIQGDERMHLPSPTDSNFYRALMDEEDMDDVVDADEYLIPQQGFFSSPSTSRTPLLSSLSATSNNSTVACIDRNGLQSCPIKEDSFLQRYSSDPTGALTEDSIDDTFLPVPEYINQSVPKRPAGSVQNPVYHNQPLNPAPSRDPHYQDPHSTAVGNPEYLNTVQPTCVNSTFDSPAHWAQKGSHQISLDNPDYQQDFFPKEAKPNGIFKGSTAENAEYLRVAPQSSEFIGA

Compound	Ki (EGFR del746-750 T790M)	EC50 [1]
Cc1nc2cnc(Nc3ccnc(-c4cnn(S(=O)(=O)C5CC5)c4)n3)cc2n1C(C)C [Example 52, N-(2-(1-(Cyclopropylsulfonyl)-1H-pyrazol-4-yl)pyrimidin-4-yl)-1-isopropyl-2-methyl-1H-imidazo[4,5-c]pyridin-6-amine]	1.8 nM	254 nM
CCNC(=O)c1cn(C(C)C)c2cc(Nc3ccnc(N4CCC(OC)CC4)n3)ncc12 [Example 57, N-Ethyl-1-isopropyl-6-((2-(4-methoxypiperidin-1-yl)pyrimidin-4-yl)amino)-1H-pyrrolo[3,2-c]pyridine-3-carboxamide]	20.2 nM	236 nM
COC1CCN(c2nccc(Nc3cc4c(cn3)c(C#N)cn4C(C)C)n2)CC1 [Example 58, 1-Isopropyl-6-((2-(4-methoxypiperidin-1-yl)pyrimidin-4-yl)amino)-1H-pyrrolo[3,2-c]pyridine-3-carbonitrile]	60.9 nM	1410 nM
COC1CCN(c2nccc(Nc3cc4c(cn3)c(-c3nnc(C)o3)cn4C(C)C)n2)CC1 [Example 59, 1-Isopropyl-N-(2-(4-methoxypiperidin-1-yl)pyrimidin-4-yl)-3-(5-methyl-1,3,4-oxadiazol-2-yl)-1H-pyrrolo[3,2-c]pyridin-6-amine]	28.7 nM	583 nM
COC1CCN(c2nccc(Nc3cc4c(cn3)nc(C(F)F)n4C(C)C)n2)CC1 [Example 110, 2-(difluoromethyl)-1-isopropyl-N-(2-(4-methoxypiperidin-1-yl)pyrimidin-4-yl)-1H-imidazo[4,5-c]pyridin-6-amine]	144 nM	623 nM
COC1CCN(c2nccc(Nc3cc4c(cn3)c(C(N)=O)cn4C(C)C)n2)CC1 [Example 115, 1-isopropyl-6-((2-(4-methoxypiperidin-1-yl)pyrimidin-4-yl)amino)-1H-pyrrolo[3,2-c]pyridine-3-carboxamide]	28.5 nM	710 nM
CC(C)n1c(Cl)c(C(=O)NC2CCOCC2)c2cnc(Nc3ccnc(-c4cnn(S(=O)(=O)C5CC5)c4)n3)cc21 [Example 262, 2-Chloro-6-(2-(1-(cyclopropylsulfonyl)-1H-pyrazol-4-yl)pyrimidin-4-ylamino)-1-isopropyl-N-(tetrahydro-2H-pyran-4-yl)-1H-pyrrolo[3,2-c]pyridine-3-carboxamide]	1.48 nM	57.7 nM
CC1(C)COc2nc3cnc(Nc4ccnc(-c5cnn(S(=O)(=O)C6CC6)c5)n4)cc3n21 [Example 280, [2-(1-Cyclopropanesulfonyl-1H-pyrazol-4-yl)-pyrimidin-4-yl]-(3,3-dimethyl-2,3-dihydro-1-oxa-3a,6,8-triazacyclopenta[a]inden-5-yl)-amine]	8.86 nM	1740 nM
CCNc1ncc(-c2nccc(Nc3cc4c(cn3)nc(C)n4C(C)C)n2)s1 [Example 295, [2-(2-Ethylaminothiazol-5-yl)pyrimidin-4-yl](1-isopropyl-2-methyl-1H-imidazo[4,5-c]pyridin-6-yl)amine]	1.77 nM	80.6 nM
CNc1ncc(-c2nccc(Nc3cc4c(cn3)nc(C)n4C(C)C)n2)s1 [Example 312, (1-Isopropyl-2-methyl-1H-imidazo[4,5-c]pyridin-6-yl)-[2-(2-methylaminothiazol-5-yl)pyrimidin-4-yl]amine]	0.84 nM	112 nM
CC(=O)Nc1cn(C(C)C)c2cc(Nc3ccnc(-c4cnn(S(=O)(=O)C5CC5)c4)n3)ncc12 [Example 327, N-(6-((2-(1-(Cyclopropylsulfonyl)-1H-pyrazol-4-yl)pyrimidin-4-yl)amino)-1-isopropyl-1H-pyrrolo[3,2-c]pyridin-3-yl)acetamide]	0.53 nM	105 nM
Cc1c(C(=O)NC2CCOCC2)c2cnc(Nc3ccnc(-c4cnn(S(=O)(=O)C5CC5)c4)n3)cc2n1C(C)C [Example 335, 6-((2-(1-(Cyclopropylsulfonyl)-1H-pyrazol-4-yl)pyrimidin-4-yl)amino)-1-isopropyl-2-methyl-N-(tetrahydro-2H-pyran-4-yl)-1H-pyrrolo[3,2-c]pyridine-3-carboxamide]	2.28 nM	252 nM
CC(C)n1cc(-c2cnn(CCO)c2)c2cnc(Nc3ccnc(-c4cnn(S(=O)(=O)C5CC5)c4)n3)cc21 [Example 393, 2-(4-(6-((2-(1-(cyclopropylsulfonyl)-1H-pyrazol-4-yl)pyrimidin-4-yl)amino)-1-isopropyl-1H-pyrrolo[3,2-c]pyridin-3-yl)-1H-pyrazol-1-yl)ethanol]	1.12 nM	10.9 nM
CC(C)n1cc(C(=O)NC2CCOCC2)c2cnc(Nc3ccnc(-c4cnn(S(=O)(=O)C5CC5)c4)n3)cc21 [Example 396]	1.47 nM	76.9 nM
CC(C)n1c(CO)nc2cnc(Nc3ccnc(N4C[C@H]5CC[C@@H](C4)[C@H]5O)n3)cc21 [Example 433, (1R,5S,8r)-3-(4-((2-(hydroxymethyl)-1-isopropyl-1H-imidazo[4,5-c]pyridin-6-yl)amino)pyrimidin-2-yl)-3-azabicyclo[3.2.1]octan-8-ol]	17.2 nM	2190 nM
CC1(C)CCOc2nc3cnc(Nc4ccnc(-c5cnn(S(=O)(=O)C6CC6)c5)n4)cc3n21 [Example 534, [2-(1-Cyclopropanesulfonyl-1H-pyrazol-4-yl)-pyrimidin-4-yl]-(4,4-dimethyl-3,4-dihydro-2H-1-oxa-4a,7,9-triazafluoren-6-yl)amine]	5.61 nM	1370 nM
COC1CCN(c2nccc(Nc3cc4c(cn3)nc([C@@H](C)O)n4[C@@H](C)C(F)(F)F)n2)CC1F (stereo partly drawn) [Example 543, (R)-1-[6-[2-(3-Fluoro-4-methoxypiperidin-1-yl)-pyrimidin-4-ylamino]-1-((S)-2,2,2-trifluoro-1-methyl-ethyl)-1H-imidazo[4,5-c]pyridin-2-yl]ethanol]	5.81 nM	24.7 nM
